Reference: patent publication US8507510B2, “Sulfoximine-substituted pyrimidines as CDK- and/or VEGF inhibitors, their production and use as pharmaceutical agents” (Bayer Intellectual Property GmbH, priority 2003, dated 2013)

Legend:
[1] = test system: MCF7; test: Proliferation assay, MCF7; assay type: cell-based, human; details: Homo sapiens, MCF7, 96 h, MCF7 cells, 4 days, crystal violet
Text: (§1) Cultivated human tumor cells (MCF7, […] human breast cancer cells, related to ATCC HTB22; NCI-H460, human non-small-cell lung cancer cells, ATCC HTB-177, HCT 116, human colon cancer cells, ATCC CCL-247; DU 145, hormone-independent human prostate cancer cells, ATCC HTB-81; MaTu-MDR, hormone-independent, multiple pharmaceutical agent-resistant human breast cancer cells, EPO-GmbH, Berlin) were flattened out at a density of about 5000 cells/measuring point, depending on the growth rate of the respective cells, in a 96-well multititer plate in 200 μl of the corresponding growth medium. After 24 hours, the cells of one plate (zero-point plate) were colored with crystal violet (see below), while the medium of the other plates was replaced by fresh culture medium (200 μl), to which the test substances were added in various concentrations (0 μm, as well as in the range of 0.01-30 μm; the final concentration of the solvent dimethyl sulfoxide was 0.5%). The cells were incubated for 4 days in the presence of test substances. The cell proliferation was determined by coloring the cells with crystal violet: the cells were fixed by adding 20 μl/measuring point of an 11% glutaric aldehyde solution for 15 minutes at room temperature. After three washing cycles of the fixed cells with water, the plates were dried at room temperature. The cells were colored by adding 100 μl/measuring point of a 0.1% crystal violet solution (the pH was set at 3 by adding acetic acid). After three washing cycles of the colored cells with water, the plates were dried at room temperature. The dye was dissolved by adding 100 μl/measuring point of a 10% acetic acid solution. The extinction was determined by photometry at a wavelength of 595 nm The change of cell growth, in percent, was calculated by normalization of the measured values to the extinction values of the zero-point plate (=0%) and the extinction of the untreated (0 μm) cells (=100%).

[2] = test system: H460; test: Proliferation assay, H460; assay type: cell-based, human; details: Homo sapiens, NCI-H460, 96 h, H460 cells, 4 days, crystal violet
Text: as §1

[3] = test system: DU145; test: Proliferation assay, DU145; assay type: cell-based, human; details: Homo sapiens, DU-145, 96 h, DU145 cells, 4 days, crystal violet
Text: as §1

[4] = test system: MaTu-ADR; test: Proliferation assay, MaTu-ADR; assay type: cell-based, human; details: Homo sapiens, 96 h, MaTu-ADR cells, 4 days, crystal violet
Text: as §1

[5] = biological target: CDK1/CycB (Homo sapiens (Human), UniProt P06493); test: CDK1/CycB kinase assay; assay type: biochemical; details: histone IIIS substrate, 0.5 μm ATP
Experimental: Recombinant CDK1- and CycB-GST-fusion proteins, purified from baculovirus-infected insect cells (Sf9), were purchased from ProQinase GmbH, Freiburg. Histone IIIS, used as a kinase substrate, is available commercially from the Sigma Company.
The reaction was stopped by adding EDTA solution (250 mmol, pH 8.0, 14 μl/measuring point).
(§2) From each reaction batch, 10 μl was applied to P30 filter strips (Wallac Company), and non-incorporated 33P-ATP was removed by subjecting the filter strips to three washing cycles for 10 minutes each in 0.5% phosphoric acid. After the filter strips were dried for one hour at 70° C., the filter strips were covered with scintillator strips (MeltiLex™ A, Wallac Company) and baked for one hour at 90° C. The amount of incorporated 33P (substrate phosphorylation) was determined by scintillation measurement in a gamma-radiation measuring device (Wallac).

[6] = biological target: VEGF-R2 (Homo sapiens (Human), UniProt P35968); test: VEGF receptor-2 kinase assay; assay type: biochemical; details: poly-(Glu4Tyr) substrate, 8 μmol ATP
Experimental: Recombinant VEGF receptor tyrosine kinase-2 was purified as a GST fusion protein from baculovirus-infected insect cells (Sf9). Poly-(Glu4Tyr), which was used as a kinase substrate, was purchased by the Sigma Company.
VEGF receptor tyrosine kinase (90 ng/measuring point) was incubated for 10 minutes at 22° C. in the presence of various concentrations of test substances (0 μm, as well as within the range of 0.001-30 μm) in 30 μl of assay buffer [40 mmol of Tris/HCl, […], 10 mmol of MgCl2, 1 mmol of MnCl2, 3 μmol of Na ortho-vanadate, 1.0 mmol of dithiothreitol, 8 μmol of adenosine trisphosphate (ATP), 27 μg/measuring point of poly-(Glu4Tyr), 0.2 μCi/measuring point of 33P-gamma ATP, 1% dimethyl sulfoxide]. The reaction was stopped by adding EDTA solution (250 mmol, pH 7.0, 10 μl/measuring point).
as §2

Sequence of VEGF-R2 (P35968 20-1356, species assumed): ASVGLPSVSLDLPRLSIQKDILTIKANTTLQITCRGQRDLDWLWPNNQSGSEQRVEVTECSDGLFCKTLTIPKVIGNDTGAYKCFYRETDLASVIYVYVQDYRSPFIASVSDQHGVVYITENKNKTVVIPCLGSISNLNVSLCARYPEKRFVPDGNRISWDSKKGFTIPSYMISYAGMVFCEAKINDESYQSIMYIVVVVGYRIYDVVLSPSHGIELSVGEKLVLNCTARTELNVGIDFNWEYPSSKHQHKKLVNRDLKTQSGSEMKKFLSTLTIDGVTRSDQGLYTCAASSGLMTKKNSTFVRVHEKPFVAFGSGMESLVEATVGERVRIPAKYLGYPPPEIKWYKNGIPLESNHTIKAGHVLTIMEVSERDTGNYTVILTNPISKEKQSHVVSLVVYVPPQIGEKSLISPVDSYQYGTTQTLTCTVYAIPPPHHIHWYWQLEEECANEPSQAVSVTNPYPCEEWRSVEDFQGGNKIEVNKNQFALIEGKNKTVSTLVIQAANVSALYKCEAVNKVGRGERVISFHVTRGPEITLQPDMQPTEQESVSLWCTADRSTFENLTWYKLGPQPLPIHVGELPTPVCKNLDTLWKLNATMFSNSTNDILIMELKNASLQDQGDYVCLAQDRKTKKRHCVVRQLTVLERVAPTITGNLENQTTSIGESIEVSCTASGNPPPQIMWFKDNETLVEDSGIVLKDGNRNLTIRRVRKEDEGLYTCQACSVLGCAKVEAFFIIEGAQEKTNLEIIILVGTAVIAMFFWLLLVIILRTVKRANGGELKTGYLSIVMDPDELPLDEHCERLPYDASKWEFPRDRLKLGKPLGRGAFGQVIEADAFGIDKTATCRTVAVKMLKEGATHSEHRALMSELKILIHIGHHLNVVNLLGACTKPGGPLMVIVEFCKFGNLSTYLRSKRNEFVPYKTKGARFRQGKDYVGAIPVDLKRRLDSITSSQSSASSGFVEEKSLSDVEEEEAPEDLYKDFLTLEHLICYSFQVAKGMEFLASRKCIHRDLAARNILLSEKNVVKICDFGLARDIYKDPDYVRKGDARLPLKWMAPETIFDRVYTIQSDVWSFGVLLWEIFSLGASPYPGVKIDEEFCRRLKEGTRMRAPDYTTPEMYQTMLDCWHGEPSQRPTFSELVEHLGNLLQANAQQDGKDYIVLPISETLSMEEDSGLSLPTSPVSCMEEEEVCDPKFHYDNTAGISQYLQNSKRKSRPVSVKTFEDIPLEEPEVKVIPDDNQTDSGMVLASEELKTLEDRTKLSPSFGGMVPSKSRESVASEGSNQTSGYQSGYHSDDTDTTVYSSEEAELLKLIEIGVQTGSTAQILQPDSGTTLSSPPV
Sequence of CDK1/CycB (P06493 whole entry, the tested form may be a part): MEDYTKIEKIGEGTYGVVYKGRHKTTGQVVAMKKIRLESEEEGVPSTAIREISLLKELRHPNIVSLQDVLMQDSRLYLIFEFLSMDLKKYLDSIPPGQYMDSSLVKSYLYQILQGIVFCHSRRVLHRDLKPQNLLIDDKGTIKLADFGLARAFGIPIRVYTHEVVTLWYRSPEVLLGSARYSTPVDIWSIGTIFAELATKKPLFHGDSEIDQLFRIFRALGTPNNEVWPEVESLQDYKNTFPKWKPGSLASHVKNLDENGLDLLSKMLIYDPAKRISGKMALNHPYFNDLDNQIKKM
Sequence of CDK1/CycB (P14635 whole entry partner, the tested form may be a part): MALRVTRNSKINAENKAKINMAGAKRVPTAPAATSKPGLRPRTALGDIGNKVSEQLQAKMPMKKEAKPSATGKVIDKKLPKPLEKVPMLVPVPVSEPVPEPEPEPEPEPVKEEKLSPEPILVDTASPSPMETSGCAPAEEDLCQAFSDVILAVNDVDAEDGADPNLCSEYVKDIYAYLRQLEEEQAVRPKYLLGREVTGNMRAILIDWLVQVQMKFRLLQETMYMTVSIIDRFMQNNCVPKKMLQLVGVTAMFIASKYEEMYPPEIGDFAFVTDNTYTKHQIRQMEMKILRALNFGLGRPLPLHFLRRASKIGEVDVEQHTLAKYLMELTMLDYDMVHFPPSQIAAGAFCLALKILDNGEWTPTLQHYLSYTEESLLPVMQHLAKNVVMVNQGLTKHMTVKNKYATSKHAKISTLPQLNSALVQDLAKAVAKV

Work on `C[C@@H](Nc1nc(Nc2ccc(S(=N)(=O)CCO)cc2)ncc1Br)C(C)(C)O` (single isomer, unassigned) [Example 1.15] yielded an IC50 [1] of 180 nM, an IC50 [2] of 200 nM and an IC50 [3] of 300 nM. The IC50 [4] was 300 nM, the IC50 [5] was 25 nM and the IC50 [6] was 59 nM.
